Laboratory results published in US20180116933A1, “ANTI-OXIDATIVE OR ANTI-AGING COMPOSITION CONTAINING 5-ADAMANTAN-1-YL-N-(2,4-DIHYDROXYBENZYL)-2,4-DIMETHOXYBENZAMIDE” (Amorepacific Corporation, priority 2015, published 2018).

Experiments:
Raw 264.7 cells = assay: Cytotoxicity test (MTT method) in Raw 264.7 cells; assay type: cell-based
Protocol: RAW264.7 cells (obtained from ATCC (Rockville, Md., USA) as a murine macrophage cell line) were incubated in RPMI 1640 medium supplemented with FBS (10% heat-inactivated fetal bovine serum; Gibco, Grand Island, N.Y., USA), glutamine, antibiotics (penicillin and streptomycin) at 37° C. and 5% CO2.
In all experiments, cells were detached with a cell scraper. When cells were incubated at a concentration of 2×10^6 cells/mL in the experiment, the percentage of dead cells was 1% or less (confirmed by a trypan blue dye exclusion method).
In order to determine the appropriate concentration of extract treatment for anti-inflammatory evaluation of 5-adamantan-1-yl-N-(2,4-dihydroxybenzyl)-2,4-dimethoxybenzamide, the cytotoxicity of 5-adamantan-1-yl-N-(2,4-dihydroxybenzyl)-2,4-dimethoxybenzamide at each concentration was evaluated in the cells used in the experiments.
Raw 264.7 cells in the subculture were plated on a well plate at a density of […]. After 18 hours of cell incubation, the cells were subjected to a sample treatment so that the concentration of 5-adamantan-1-yl-N-(2,4-dihydroxybenzyl)-2,4-dimethoxybenzamide (referred to as ‘AP736’ in FIG. 1) was from 0 to 30 μM. The cells were incubated for 8 hours or 24 hours in an incubator. The cytotoxic effect was evaluated by the conventional MTT method. Before the last 3 hours of incubation, 10 μL of MTT {3-[4,5-dimethylthiazol-2-yl]-2,5-diphenyltetrazolium bromide} solution (10 mg/mL in phosphate-buffered saline, pH 7.4) was added to each well. To each well, 15% SDS (sodium dodecyl sulfate) was added to terminate the reaction, and the formazan crystal was then dissolved therein. Thereafter, the absorbance at 570 nm was measured on a microplate reader.

[1] = DPPH free radical scavenging evaluation; assay type: biochemical; settings: 0 to 200 μg/ml, DPPH 0.2 mM in methanol, 30 minutes, absorbance 517 nm (FIG. 2)
Protocol: The DPPH free radical scavenging evaluation method was performed as follows.
In 5-adamantan-1-yl-N-(2,4-dihydroxybenzyl)-2,4-dimethoxybenzamide (referred to as ‘AP736’ in FIG. 2) prepared in Example, a reaction product adjusted to a concentration of from 0 to 200 μg/ml and a methanol solution of DPPH (0.2 mM) were incubated for 30 minutes. The absorbance of the solution was measured at 517 nm. The scavenging ability was expressed by the value obtained by comparing the absorbance of the solution to that (100%) of the control DPPH solution in % as presented in the following Mathematical Formula 1.

[2] = tested on: matrix metalloprotease-1 (MMP-1); assay: MMP-1 assay: UV-induced MMP-1 expression in HS68 human fibroblasts (MMP-1 ELISA kit); assay type: cell-based; settings: UV-irradiated HS68 cells, 0.1, 0.5, and 1 μM, 48 hours (FIG. 3)
Protocol: In order to confirm the anti-aging effect of the sample, an experiment to see how much 5-adamantan-1-yl-N-(2,4-dihydroxybenzyl)-2,4-dimethoxybenzamide can inhibit the expression of matrix metalloprotease-1 (MMP-1) to be induced by ultraviolet (UV) rays was performed.
Human fibroblasts (HS68 cells, purchased from ATCC (Rockville, Md., USA)) were plated on a well plate at a density of 7.5×10^4 cells/well, then incubated in DMEM (Dulbecco's Modified Eagle's Medium) containing 10% FBS for 24 hours, then washed with PBS (phosphate-buffered saline), then 0.5 ml of PBS was added thereto, and the expression of MMP-1 was induced by irradiating the resultant incubated cells with ultraviolet rays. After changing to Serum-Free DMEM, the resultant was treated with 5-adamantan-1-yl-N-(2,4-dihydroxybenzyl)-2,4-dimethoxybenzamide (referred to as ‘AP736’ in FIG. 3) prepared in Example. The amount of the supernatant obtained after incubation for a certain period of time (48 hours) was measured by using an MMP-1 ELISA kit.
In other words, HS68 cells of human dermal fibroblasts were treated with ultraviolet rays to increase the expression of MMP-1, and the resulting HS68 cells were then treated with each sample to see whether the expression of MMP-1 decreased. The experimental results are illustrated in FIG. 3. […]

SMILES: COc1cc(OC)c(C23CC4CC(CC(C4)C2)C3)cc1C(=O)NCc1ccc(O)cc1O [AP736, 5-adamantan-1-yl-N-(2,4-dihydroxybenzyl)-2,4-dimethoxybenzamide]
- cell viability (Raw 264.7 cells; 10 μM, 8 hours): about 100%
- cell viability (Raw 264.7 cells; 10 μM, 24 hours): about 100%
- cell viability (Raw 264.7 cells; 20 μM, 8 hours): about 100%
- cell viability (Raw 264.7 cells; 20 μM, 24 hours): about 100%
- cell viability (Raw 264.7 cells; 30 μM, 24 hours): about 80%
- percentage of DPPH radical scavenging activity [1]: increases
- expression of MMP-1 [2]: tended to decrease
